# Experiments:
# [1] = system: xylene-induced ear swelling in mice; experiment: Xylene-induced ear swelling in mice; assay type: in vivo, Kunming mice; conditions: 200 mg/kg
# Experimental: 80 Kunming mice were divided into 8 groups with 10 mice for each group and numbered. A physiological saline group was used as a blank control group, an aspirin group (200 mg/kg) was used as a positive control group, and fusion proteins I and II at high, medium and low doses (128, 32, 8 mg/kg) was used as the experimental groups. Mice were administered once by injection every 5 days. The blank control group was given an equal volume of physiological saline. On the fifth day after the administration, 0.05 mL of xylene was applied to both sides of the right ears of the mice to induce inflammation, and the left ears were not applied and were normal ears. After 2 h, the mice were sacrificed by dislocation, and the ears were cut along the auricle. Ear pieces were taken with a puncher and weighed, and the swelling degree and swelling rate were calculated. Swelling degree=right ear piece weight-left ear piece weight, swelling rate=(swelling degree/left ear piece weight)×100%.
# [2] = system: adjuvant arthritis in rat; experiment: Chronic inflammation of adjuvant arthritis in rat; assay type: in vivo, SD rats; conditions: 1 mg/kg once every 5 days for 15 days
# Experimental: 80 SPF SD rats were randomly divided into 8 groups. Rats in each group were lightly anesthetized with ether. Then, 0.1 mL of complete Freund's adjuvant containing inactivated Mycobacterium tuberculosis was injected subcutaneously into the left hind foot of the rats. Primary arthritis occurred in the left hind foot of the rat, and at about 13 days post-modeling, secondary arthritis occurred in the right hind foot. A blank control group was injected with an equal volume of physiological saline. The drug was administered 13 days after modeling.
# Using a foot volume measuring method, a marker was made with a fat-soluble marker at the left and right posterior ankle joints of each rat, and the left and right hind feet of the animal were respectively immersed in the volume measuring device. The immersion depth was bounded by the marker, and the reading value at the scale pipette of the device was the initial volume of the animal's left and right hind feet.
# The day of modeling was considered as the 0th day and recorded as d0. The volume of the left hind foot (modeling foot) was measured from the first day dl after modeling every 2 days. When the swelling occurred (i.e., secondary arthritis occurred) at the contralateral non-inflammatory foot (right hind foot), the administration was started. The volume of the left and right hind feet was measured once every 2 days, and the degree of primary and secondary toe swelling was determined, which was calculated as follows: Primary toe swelling (mL)=left hind foot volume on the day of measurement−initial volume of left hind foot Secondary toe swelling (mL)=right hind foot volume on the day of measurement−initial volume of right hind foot
# Systemic score: the systemic score was taken every 2 days after the onset of secondary inflammation.
# Hind foot: no swelling=0 score, one hind foot swelling=1 score, two hind feet swelling=2 scores;
# Forefoot: no swelling=0 score, one forefoot swelling=1 score, two forefeet swelling=2 scores;
# Ears: no redness and nodules=0 score, redness or nodules in one ear=1 score, redness and nodules in both ears=2 scores;
# Nose: no swelling=0 score, obvious swelling=1 score;
# Tail: no nodules=0 score, nodules=1 score; full score was 8 scores.
# Arthritis index score: the arthritis index score was performed every 2 days after the onset of secondary inflammation.
# The initial body weight of each group of rats was weighed before modeling. The body weight was measured every 2 days from dl after modeling, from which the initial body weight was subtracted to obtain the weight gain of each group of rats.
# [3] = system: Human umbilical vein endothelial cells (HUVECs); experiment: Three-dimensional transwell assay, migration of HUVEC; assay type: cell-based; conditions: 8.0 · 10^−6 μg/mL, 24 h
# Experimental: (1) 10 mg/mL Matrigel (a basement membrane matrix secreted by Engelbreth-Holm-Swarm (EHS) mouse sarcoma cells) diluted with a DMEM medium (Dulbecco's Modified Eagle Medium) at a ratio of 1:4, coated on a transwell chamber membrane, and air-dried at room temperature;
# (2) HUVEC cells cultured to logarithmic phase were digested with 0.2% EDTA, collected, washed twice with PBS, followed by resuspended in an endothelial cell culture liquid containing 0.1% BSA, and counted under a microscope, and the cell concentration was adjusted to 1×10^5 cells/mL;
# (3) Test solutions for each group were formulated and diluted to 100 μL with a cell culture liquid containing 0.1% BSA;
# (4) The cells were inoculated into a transwell chamber, 100 μL per well, and test solutions for each group were added to the chamber. To a 24-well plate, 0.6 mL of endothelial cell culture liquid containing 5% fetal bovine serum and 1×ECGS was added to stimulate cell migration, and incubated at 5% CO2 at 37° C. for 24 h;
# (5) The culture liquid in the well was discarded. […] The migration inhibition (MI) was calculated according to the formula: […]
# The test was repeated 3 times independently. The results obtained from the test were calculated as mean±SD, and statistical t-test was performed. […]
# melanoma cell B16F10 = experiment: MTT assay, proliferation of melanoma cell B16F10; assay type: cell-based; conditions: 5 μg/mL, 48 h
# Experimental: (§1) The MTT assay was used to detect the inhibitory effect of the integrin blocker fusion protein obtained in Example 1 on the proliferation of various tumor cells, including melanoma cell B16F10, gastric cancer cell MGC-803, lung cancer cell A549, liver cancer cell Hep-G2, breast cancer cell MDA-MB-231, colon cancer cell HCT-116, human glioma U87, and cervical cancer cell Hela.
# (§2) The tumor cells were cultured in a 5% CO2 incubator at 37° C. to a density of 90% or more, and collected by trypsinization. The cells were resuspended in the culture liquid and counted under a microscope. The cell concentration was adjusted to 3.0×10^4 cells/mL. The cell suspension was inoculated into a 96-well plate, 100 μL per well, and cultured overnight in a 5% CO2 incubator at 37° C. The fusion proteins I, II, and the positive drug Taxol were diluted with the culture liquid to respective predetermined concentrations. After the cells were fully adhered, each dilution was added to a 96-well plate, 100 μL per well, respectively. […] The absorbance was measured at 570 nm with a microplate reader with a reference wavelength of 630 nm, and the proliferation inhibition (PI) was calculated. […]
# (§3) The test was repeated 5 times independently. The results obtained from the test were calculated as mean±SD, and statistical t-test was performed. […]
# [4] = system: gastric cancer cell MGC-803; experiment: MTT assay, proliferation of gastric cancer cell MGC-803; assay type: cell-based; conditions: 5 μg/mL, 48 h
# Experimental: as §1, §2, §3
# lung cancer cell A549 = experiment: MTT assay, proliferation of lung cancer cell A549; assay type: cell-based; conditions: 5 μg/mL, 48 h
# Experimental: as §1, §2, §3
# liver cancer cell Hep-G2 = experiment: MTT assay, proliferation of liver cancer cell Hep-G2; assay type: cell-based; conditions: 5 μg/mL, 48 h
# Experimental: as §1, §2, §3
# [5] = system: breast cancer cell MDA-MB-231; experiment: MTT assay, proliferation of breast cancer cell MDA-MB-231; assay type: cell-based; conditions: 5 μg/mL, 48 h
# Experimental: as §1, §2, §3
# [6] = system: colon cancer cell HCT-116; experiment: MTT assay, proliferation of colon cancer cell HCT-116; assay type: cell-based; conditions: 5 μg/mL, 48 h
# Experimental: as §1, §2, §3
# human glioma U87 = experiment: MTT assay, proliferation of human glioma U87; assay type: cell-based; conditions: 5 μg/mL, 48 h
# Experimental: as §1, §2, §3
# [7] = system: cervical cancer cell Hela; experiment: MTT assay, proliferation of cervical cancer cell Hela; assay type: cell-based; conditions: 5 μg/mL, 48 h
# Experimental: as §1, §2, §3
smiles,measurement,setting,value
"CC(=O)Oc1ccccc1C(=O)O [Aspirin, aspirin, reference compound]",PI (%),"[1]; ear swelling, mice",53.15%
same,Swelling degree,"[1]; mouse ear, 2 h after xylene",3.12 ± 0.61 mg
"CN(Cc1cnc2nc(N)nc(N)c2n1)c1ccc(C(=O)N[C@@H](CCC(=O)O)C(=O)O)cc1 [Methotrexate, methotrexate, reference compound]",Clinical score Arthritis index,[2],2.96 ± 0.57
same,Clinical score Whole body,[2],1.34 ± 0.19
same,Foot swelling degree (mL) Left,[2],1.22 ± 0.21 mL
same,Foot swelling degree (mL) Right,[2],1.25 ± 0.13 mL
same,Weight gain,[2],47.35 ± 17.40 g
"CCN(CC)CCNC(=O)c1c(C)[nH]c(/C=C2\C(=O)Nc3ccc(F)cc32)c1C [Sunitinib, reference compound]",MI (%),[3],82.31%
same,Migration cell number,[3],441.0 ± 150.58
"CC(=O)O[C@H]1C(=O)[C@@]2(C)[C@H]([C@H](OC(=O)c3ccccc3)[C@]3(O)C[C@H](OC(=O)[C@H](O)[C@@H](NC(=O)c4ccccc4)c4ccccc4)C(C)=C1C3(C)C)[C@]1(OC(C)=O)CO[C@@H]1C[C@@H]2O [Taxol, reference compound]",A570 nm/A630 nm,melanoma cell B16F10,0.6011 ± 0.0144
same,PI (%),melanoma cell B16F10,52.13%
same,A570 nm/A630 nm,[4],0.4146 ± 0.0186
same,PI (%),[4],56.60%
same,A570 nm/A630 nm,lung cancer cell A549,0.3226 ± 0.0309
same,PI (%),lung cancer cell A549,52.17%
same,A570 nm/A630 nm,liver cancer cell Hep-G2,0.4257 ± 0.0099
same,PI (%),liver cancer cell Hep-G2,58.55%
same,A570 nm/A630 nm,[5],0.4071 ± 0.0301
same,PI (%),[5],52.83%
same,A570 nm/A630 nm,[6],0.2098 ± 0.0164
same,PI (%),[6],69.16%
same,A570 nm/A630 nm,human glioma U87,0.1825 ± 0.0163
same,PI (%),human glioma U87,76.38%
same,A570 nm/A630 nm,[7],0.2078 ± 0.0162
same,PI (%),[7],83.75%
